Key:
Format in all cases: ADME
[1] = The drug is tested on Collinsella aerofaciens strain: DSM3979 for biotransformation under anaerobic condition. The drug concentrations were measured over 6 timepoints collected between 0 and 12 hours of incubation by liquid-chromatography-coupled mass spectrometry (LC–MS); set-up: dose 5 uM, timepoint 0, 1.5, 3, 6, 9, 12 hours; details: 5 µM
[2] = The drug is tested on Gemella morbillorum strain: DSM20572 for biotransformation under microaerobic condition. The drug concentrations were measured over 6 timepoints collected between 0 and 12 hours of incubation by liquid-chromatography-coupled mass spectrometry (LC–MS); set-up: dose 5 uM, timepoint 0, 1.5, 3, 6, 9, 12 hours; details: 5 µM
[3] = The drug is tested on Enterococcus faecalis strain: ATCC29212 for biotransformation under microaerobic condition. The drug concentrations were measured over 6 timepoints collected between 0 and 12 hours of incubation by liquid-chromatography-coupled mass spectrometry (LC–MS); set-up: dose 5 uM, timepoint 0, 1.5, 3, 6, 9, 12 hours; details: 5 µM
[4] = The drug is tested on Actinomyces graevenitzii strain: DSM15540 for biotransformation under microaerobic condition. The drug concentrations were measured over 6 timepoints collected between 0 and 12 hours of incubation by liquid-chromatography-coupled mass spectrometry (LC–MS); set-up: dose 5 uM, timepoint 0, 1.5, 3, 6, 9, 12 hours; details: 5 µM
[5] = The drug is tested on Eubacterium rectale strain: DSM17629 for biotransformation under anaerobic condition. The drug concentrations were measured over 6 timepoints collected between 0 and 12 hours of incubation by liquid-chromatography-coupled mass spectrometry (LC–MS); set-up: dose 5 uM, timepoint 0, 1.5, 3, 6, 9, 12 hours; details: agathobacter rectalis, 5 µM
[6] = The drug is tested on the gut metagenome community of P-01 with ENA study accession number: PRJEB31790 for biotransformation under microaerobic condition. The drug concentrations were measured over 7 timepoints collected between 0 and 12 hours of incubation by liquid-chromatography-coupled mass spectrometry (LC–MS); set-up: dose 5 uM, timepoint 0, 0.75, 1.5, 3, 6, 9, 12 hours; details: 5 µM
[7] = The drug is tested on Bacteroides vulgatus strain: DSM1447 for biotransformation under anaerobic condition. The drug concentrations were measured over 6 timepoints collected between 0 and 12 hours of incubation by liquid-chromatography-coupled mass spectrometry (LC–MS); set-up: dose 5 uM, timepoint 0, 1.5, 3, 6, 9, 12 hours; details: phocaeicola vulgatus, 5 µM
[8] = The drug is tested on Lactobacillus paracasei strain: ATCC27092 for biotransformation under microaerobic condition. The drug concentrations were measured over 6 timepoints collected between 0 and 12 hours of incubation by liquid-chromatography-coupled mass spectrometry (LC–MS); set-up: dose 5 uM, timepoint 0, 1.5, 3, 6, 9, 12 hours; details: lacticaseibacillus paracasei, 5 µM
[9] = The drug is tested on the gut metagenome community of A-04 with ENA study accession number: PRJEB31790 for biotransformation under anaerobic condition. The drug concentrations were measured over 7 timepoints collected between 0 and 12 hours of incubation by liquid-chromatography-coupled mass spectrometry (LC–MS); set-up: dose 5 uM, timepoint 0, 0.75, 1.5, 3, 6, 9, 12 hours; details: 5 µM
[10] = The drug is tested on the gut metagenome community of A-08 with ENA study accession number: PRJEB31790 for biotransformation under microaerobic condition. The drug concentrations were measured over 7 timepoints collected between 0 and 12 hours of incubation by liquid-chromatography-coupled mass spectrometry (LC–MS); set-up: dose 5 uM, timepoint 0, 0.75, 1.5, 3, 6, 9, 12 hours; details: 5 µM
[11] = The drug is tested on the gut metagenome community of T-05 with ENA study accession number: PRJEB31790 for biotransformation under anaerobic condition. The drug concentrations were measured over 7 timepoints collected between 0 and 12 hours of incubation by liquid-chromatography-coupled mass spectrometry (LC–MS); set-up: dose 5 uM, timepoint 0, 0.75, 1.5, 3, 6, 9, 12 hours; details: 5 µM
[12] = The drug is tested on Streptococcus sanguinis strain: DSM20567 for biotransformation under microaerobic condition. The drug concentrations were measured over 6 timepoints collected between 0 and 12 hours of incubation by liquid-chromatography-coupled mass spectrometry (LC–MS); set-up: dose 5 uM, timepoint 0, 1.5, 3, 6, 9, 12 hours; details: 5 µM
[13] = The drug is tested on the gut metagenome community of A-02 with ENA study accession number: PRJEB31790 for biotransformation under microaerobic condition. The drug concentrations were measured over 7 timepoints collected between 0 and 12 hours of incubation by liquid-chromatography-coupled mass spectrometry (LC–MS); set-up: dose 5 uM, timepoint 0, 0.75, 1.5, 3, 6, 9, 12 hours; details: 5 µM
[14] = The drug is tested on the gut metagenome community of A-05 with ENA study accession number: PRJEB31790 for biotransformation under microaerobic condition. The drug concentrations were measured over 7 timepoints collected between 0 and 12 hours of incubation by liquid-chromatography-coupled mass spectrometry (LC–MS); set-up: dose 5 uM, timepoint 0, 0.75, 1.5, 3, 6, 9, 12 hours; details: 5 µM
[15] = The drug is tested on the gut metagenome community of A-07 with ENA study accession number: PRJEB31790 for biotransformation under microaerobic condition. The drug concentrations were measured over 7 timepoints collected between 0 and 12 hours of incubation by liquid-chromatography-coupled mass spectrometry (LC–MS); set-up: dose 5 uM, timepoint 0, 0.75, 1.5, 3, 6, 9, 12 hours; details: 5 µM
[16] = The drug is tested on the gut metagenome community of A-08 with ENA study accession number: PRJEB31790 for biotransformation under anaerobic condition. The drug concentrations were measured over 7 timepoints collected between 0 and 12 hours of incubation by liquid-chromatography-coupled mass spectrometry (LC–MS); set-up: dose 5 uM, timepoint 0, 0.75, 1.5, 3, 6, 9, 12 hours; details: 5 µM
[17] = The drug is tested on the gut metagenome community of T-04 with ENA study accession number: PRJEB31790 for biotransformation under anaerobic condition. The drug concentrations were measured over 7 timepoints collected between 0 and 12 hours of incubation by liquid-chromatography-coupled mass spectrometry (LC–MS); set-up: dose 5 uM, timepoint 0, 0.75, 1.5, 3, 6, 9, 12 hours; details: 5 µM
[18] = The drug is tested on Actinomyces naeslundi strain: DSM43013 for biotransformation under anaerobic condition. The drug concentrations were measured over 6 timepoints collected between 0 and 12 hours of incubation by liquid-chromatography-coupled mass spectrometry (LC–MS); set-up: dose 5 uM, timepoint 0, 1.5, 3, 6, 9, 12 hours; details: actinomyces naeslundii, 5 µM
[19] = The drug is tested on the gut metagenome community of P-03 with ENA study accession number: PRJEB31790 for biotransformation under microaerobic condition. The drug concentrations were measured over 7 timepoints collected between 0 and 12 hours of incubation by liquid-chromatography-coupled mass spectrometry (LC–MS); set-up: dose 5 uM, timepoint 0, 0.75, 1.5, 3, 6, 9, 12 hours; details: 5 µM
[20] = The drug is tested on Alloscardovia omnicolens strain: DSM21503 for biotransformation under microaerobic condition. The drug concentrations were measured over 6 timepoints collected between 0 and 12 hours of incubation by liquid-chromatography-coupled mass spectrometry (LC–MS); set-up: dose 5 uM, timepoint 0, 1.5, 3, 6, 9, 12 hours; details: 5 µM
[21] = The drug is tested on the gut metagenome community of A-01 with ENA study accession number: PRJEB31790 for biotransformation under anaerobic condition. The drug concentrations were measured over 7 timepoints collected between 0 and 12 hours of incubation by liquid-chromatography-coupled mass spectrometry (LC–MS); set-up: dose 5 uM, timepoint 0, 0.75, 1.5, 3, 6, 9, 12 hours; details: 5 µM
[22] = The drug is tested on Streptococcus anginosus strain: DSM20563 for biotransformation under anaerobic condition. The drug concentrations were measured over 6 timepoints collected between 0 and 12 hours of incubation by liquid-chromatography-coupled mass spectrometry (LC–MS); set-up: dose 5 uM, timepoint 0, 1.5, 3, 6, 9, 12 hours; details: 5 µM
[23] = The drug is tested on the gut metagenome community of A-07 with ENA study accession number: PRJEB31790 for biotransformation under anaerobic condition. The drug concentrations were measured over 7 timepoints collected between 0 and 12 hours of incubation by liquid-chromatography-coupled mass spectrometry (LC–MS); set-up: dose 5 uM, timepoint 0, 0.75, 1.5, 3, 6, 9, 12 hours; details: 5 µM
[24] = The drug is tested on Bifidobacterium adolescentis strain: DSM20083 for biotransformation under anaerobic condition. The drug concentrations were measured over 6 timepoints collected between 0 and 12 hours of incubation by liquid-chromatography-coupled mass spectrometry (LC–MS); set-up: dose 5 uM, timepoint 0, 1.5, 3, 6, 9, 12 hours; details: 5 µM
[25] = The drug is tested on Lactobacillus reuteri strain: DSM20016 for biotransformation under anaerobic condition. The drug concentrations were measured over 6 timepoints collected between 0 and 12 hours of incubation by liquid-chromatography-coupled mass spectrometry (LC–MS); set-up: dose 5 uM, timepoint 0, 1.5, 3, 6, 9, 12 hours; details: limosilactobacillus reuteri, 5 µM

Cn1cnc([N+](=O)[O-])c1Sc1ncnc2nc[nH]c12 [AZATHIOPRINE]
Bacterial Biotransformation [1]: Compound metabolized | Bacterial Biotransformation [2]: Compound NOT metabolized | Bacterial Biotransformation [3]: Compound metabolized | Bacterial Biotransformation [4]: Compound metabolized | Bacterial Biotransformation [5]: Compound metabolized | Bacterial Biotransformation [6]: Compound NOT metabolized | Bacterial Biotransformation [7]: Compound metabolized | Bacterial Biotransformation [8]: Compound NOT metabolized | Bacterial Biotransformation [9]: Compound metabolized | Bacterial Biotransformation [10]: Compound metabolized | Bacterial Biotransformation [11]: Compound metabolized | Bacterial Biotransformation [12]: Compound NOT metabolized | Bacterial Biotransformation [13]: Compound metabolized | Bacterial Biotransformation [14]: Compound metabolized | Bacterial Biotransformation [15]: Compound metabolized | Bacterial Biotransformation [16]: Compound metabolized | Bacterial Biotransformation [17]: Compound NOT metabolized | Bacterial Biotransformation [18]: Compound NOT metabolized | Bacterial Biotransformation [19]: Compound NOT metabolized | Bacterial Biotransformation [20]: Compound NOT metabolized | Bacterial Biotransformation [21]: Compound NOT metabolized | Bacterial Biotransformation [22]: Compound metabolized | Bacterial Biotransformation [23]: Compound metabolized | Bacterial Biotransformation [24]: Compound metabolized | Bacterial Biotransformation [25]: Compound NOT metabolized

C[C@H]1C[C@H]2[C@@H]3CCC4=CC(=O)C=C[C@]4(C)[C@@]3(F)[C@@H](O)C[C@]2(C)[C@@]1(O)C(=O)CO [BETAMETHASONE]
Bacterial Biotransformation [1]: Compound NOT metabolized | Bacterial Biotransformation [2]: Compound NOT metabolized | Bacterial Biotransformation [3]: Compound NOT metabolized | Bacterial Biotransformation [4]: Compound NOT metabolized | Bacterial Biotransformation [5]: Compound NOT metabolized | Bacterial Biotransformation [6]: Compound NOT metabolized | Bacterial Biotransformation [7]: Compound NOT metabolized | Bacterial Biotransformation [8]: Compound NOT metabolized | Bacterial Biotransformation [9]: Compound metabolized | Bacterial Biotransformation [10]: Compound metabolized | Bacterial Biotransformation [11]: Compound NOT metabolized | Bacterial Biotransformation [12]: Compound NOT metabolized | Bacterial Biotransformation [13]: Compound metabolized | Bacterial Biotransformation [14]: Compound NOT metabolized | Bacterial Biotransformation [15]: Compound metabolized | Bacterial Biotransformation [16]: Compound metabolized | Bacterial Biotransformation [17]: Compound NOT metabolized | Bacterial Biotransformation [18]: Compound NOT metabolized | Bacterial Biotransformation [19]: Compound NOT metabolized | Bacterial Biotransformation [20]: Compound NOT metabolized | Bacterial Biotransformation [21]: Compound NOT metabolized | Bacterial Biotransformation [22]: Compound NOT metabolized | Bacterial Biotransformation [23]: Compound metabolized | Bacterial Biotransformation [24]: Compound NOT metabolized | Bacterial Biotransformation [25]: Compound NOT metabolized

CCCC1O[C@@H]2C[C@H]3[C@@H]4CCC5=CC(=O)C=C[C@]5(C)[C@H]4[C@@H](O)C[C@]3(C)[C@]2(C(=O)CO)O1 (stereo not given in full) [BUDESONIDE]
Bacterial Biotransformation [1]: Compound NOT metabolized | Bacterial Biotransformation [2]: Compound NOT metabolized | Bacterial Biotransformation [3]: Compound NOT metabolized | Bacterial Biotransformation [4]: Compound NOT metabolized | Bacterial Biotransformation [5]: Compound NOT metabolized | Bacterial Biotransformation [6]: Compound NOT metabolized | Bacterial Biotransformation [7]: Compound NOT metabolized | Bacterial Biotransformation [8]: Compound NOT metabolized | Bacterial Biotransformation [9]: Compound NOT metabolized | Bacterial Biotransformation [10]: Compound metabolized | Bacterial Biotransformation [11]: Compound NOT metabolized | Bacterial Biotransformation [12]: Compound NOT metabolized | Bacterial Biotransformation [13]: Compound metabolized | Bacterial Biotransformation [14]: Compound metabolized | Bacterial Biotransformation [15]: Compound metabolized | Bacterial Biotransformation [16]: Compound metabolized | Bacterial Biotransformation [17]: Compound NOT metabolized | Bacterial Biotransformation [18]: Compound NOT metabolized | Bacterial Biotransformation [19]: Compound NOT metabolized | Bacterial Biotransformation [20]: Compound NOT metabolized | Bacterial Biotransformation [21]: Compound NOT metabolized | Bacterial Biotransformation [22]: Compound NOT metabolized | Bacterial Biotransformation [23]: Compound metabolized | Bacterial Biotransformation [24]: Compound NOT metabolized | Bacterial Biotransformation [25]: Compound NOT metabolized
